Laboratory results as given in patent US20130216631A1, “TARGETED PERFORMANCE OF HYPOHALITE COMPOSITIONS THEREOF” (The Clorox Company, priority 2012, published 2013).

Assay: Percentage of initial hypochlorite remaining over time after mixing oxidant and reductant
Type: physicochemical
Details: any pH below 12
Description: The amount of available halogen oxidant in the composition may be determined by placing samples of the composition into about 50 milliliters of distilled water, followed by addition of about 10 milliliters of a 10 wt % solution of potassium iodide and addition of about 10 milliliters of a 10 volume % solution of sulfuric acid, the resulting mixture being well stirred. The resulting yellow to brown solution, whose color is the result of oxidation of […] (I^−) to molecular iodine (I2), is then volumetrically titrated to an essentially colorless endpoint by addition of standardized 0.1 Molar sodium thiosulfate (Na2S2O3) titrant. […] Stability results are then expressed by repeated assays over time using identically prepared samples resulting from the same composition, normalized to 100 percent representative of the starting available chlorine measured initially.
Alternatively, at lower concentrations of hypochlorite, generally below about 2,000 ppm or 0.2 wt %, spectroscopic measurement of the absorption of aqueous solutions may be used to monitor the concentration, and resulting changes, of the hypochlorous acid species in solution. […] By use of controls, the relative level of hypochlorite can then be monitored and calculated by measuring absorbance of solutions by means of a suitable instrument, such as a spectrophotometer. […]

SMILES: O=C(O)CN(CCN(CC(=O)O)CC(=O)O)CC(=O)O [EDTA, ethylene diamine tetra-acetic acid]
- reaction of reductant with hypochlorite (quench rate): reacts almost instantly
